# Measurements taken from patent US20210252028A1, “SYNTHETIC COMPOSITION FOR MICROBIOTA MODULATION” (Glycom A/S, priority 2016, published 2021).
# Assays:
# [1] = system: B. adolescentis phylogenetic group; assay: ITS profiling of the Bifidobacterium community in faeces of healthy adults after 2 weeks of HMO consumption; type: in vivo, human; conditions: for percentage increase of B. adolescentis phylogenetic group: healthy adults, 2 weeks, faecal analyses
# Method: (§1) A total of 100 male and female healthy adults are recruited to participate in the study. After a screening visit and run-in period of 1-2 weeks, the participants are selected and randomized into ten groups, each of 10 subjects. One group is administered a placebo product containing 2 grams of glucose. The remaining 9 groups are administered treatment product containing a) 20 g of 2′-FL, b) 10 g of 2′-FL, c) 5 g of 2′-FL, d) 20 g of LNnT, e) 10 g of LNnT, f) 5 g of LNnT, g) 20 g of a 2:1 mixture of 2′-FL and LNnT, h) 10 g of a 2:1 mixture of 2′-FL and LNnT, and i) 5 g of a 2:1 mixture of 2′-FL and LNnT for 2 weeks (the amounts correspond to a daily dosis). The placebo and treatment products are in powder form in a unit dosage container.
# (§2) The study runs for 2 weeks with the participants consuming either a placebo or a treatment product daily. Participants are instructed to consume the products in the morning with breakfast. Compliance is monitored through the interactive internet enabled system.
# (§3) To assess the Bifidobacterium community, ITS profiling of DNA samples is performed according to Milani et al. FEMS Microbiol. Ecol. 90, 493 (2014). […] Both B. adolescentis and B. pseudocatenulatum are members of the B. adolescentis phylogenetic group. It can be seen that oral ingestion of the HMOs clearly increases the abundance of B. adolescentis and/or B. pseudocatenulatum in the microbiota of healthy adults, as well as their relative abundance compared to the totality of other Bifidobacterium species.
# [2] = system: totality of B. longum + B. bifidum + B. animalis lactis + B. angulatum; assay: as above; type: in vivo, human; conditions: faecal analyses
# Method: as §1, §2, §3
Compound,abundance of B. adolescentis and/or B. pseudocatenulatum and relative abundance compared to the totality of other Bifidobacterium species ([1]; healthy adults carrying the FUT2 mutation compared with secretors),percentage increase of B. adolescentis phylogenetic group ([1]; daily dose 5 g) [%],percentage increase of B. adolescentis phylogenetic group ([1]; daily dose 10 g) [%],percentage increase of B. adolescentis phylogenetic group ([1]; daily dose 20 g) [%],percentage increase of totality of B. longum + B. bifidum + B. animalis lactis + B. angulatum ([2]; daily dose 5 g) [%],percentage increase of totality of B. longum + B. bifidum + B. animalis lactis + B. angulatum ([2]; daily dose 10 g) [%],percentage increase of totality of B. longum + B. bifidum + B. animalis lactis + B. angulatum ([2]; daily dose 20 g) [%]
2′-fucosyllactose [2′-FL],increases in a manner similar to those in secretors,50,325,120,0,20,15
"CC(=O)N[C@H]1[C@H](O[C@H]2[C@@H](O)[C@@H](CO)O[C@@H](O[C@H]3[C@H](O)[C@@H](O)C(O)O[C@@H]3CO)[C@@H]2O)O[C@H](CO)[C@@H](O[C@@H]2O[C@H](CO)[C@H](O)[C@H](O)[C@H]2O)[C@@H]1O (mixture of isomers) [LNnT, lacto-N-neotetraose]",–,90,195,185,50,130,105
